The target of the assay is T1, human Npt2a (Homo sapiens, UniProt Q06495).
T1 construct: expressed in transfected cells
T1 sequence (Q06495 1-639): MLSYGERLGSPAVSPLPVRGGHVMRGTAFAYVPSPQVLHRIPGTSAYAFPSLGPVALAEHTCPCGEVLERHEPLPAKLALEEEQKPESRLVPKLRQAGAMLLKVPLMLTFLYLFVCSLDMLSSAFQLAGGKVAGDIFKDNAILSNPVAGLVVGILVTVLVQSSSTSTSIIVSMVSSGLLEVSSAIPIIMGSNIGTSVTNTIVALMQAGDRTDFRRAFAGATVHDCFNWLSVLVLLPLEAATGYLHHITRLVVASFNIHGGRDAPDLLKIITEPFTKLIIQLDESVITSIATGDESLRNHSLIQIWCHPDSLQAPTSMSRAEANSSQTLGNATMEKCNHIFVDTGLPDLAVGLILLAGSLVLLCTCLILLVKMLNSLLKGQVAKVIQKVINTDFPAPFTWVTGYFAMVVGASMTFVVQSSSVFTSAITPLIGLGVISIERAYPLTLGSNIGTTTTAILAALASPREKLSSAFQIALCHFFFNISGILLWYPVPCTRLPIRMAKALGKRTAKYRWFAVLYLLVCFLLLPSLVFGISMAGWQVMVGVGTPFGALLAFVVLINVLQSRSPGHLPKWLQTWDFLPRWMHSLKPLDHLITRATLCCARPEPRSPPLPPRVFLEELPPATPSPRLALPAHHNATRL
The assay can be described thus: Npt2a activity cell based assay, membrane potential dye, CHO T-REx hNpt2a cells. The conditions noted are these: doxycycline-induced, depolarization by sodium phosphate influx, average or median values if tested more than once. In a few lines: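 Cells were doxycycline-induced CHO T-REx hNpt2a, dye-loaded and pretreated 5 min at RT with 1 nM–50 μM compound in Na-free pH 7.4 buffer. IC50 was fit to the post/pre-trigger fluorescence ratio.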
The molecule `CNC(=O)Oc1c(C)nn(-c2cc(Nc3c(C)c(-c4ccc(F)cc4)nn3CC3CC3)ncn2)c1C` [Example 519, 1-(6-{[1-(cyclopropylmethyl)-3-(4-fluorophenyl)-4-methyl-1H-pyrazol-5-yl]amino}pyrimidin-4-yl)-3,5-dimethyl-1H-pyrazol-4-yl methylcarbamate] had a half-inhibitory concentration (IC50) of 230 nM.

On to `Cc1nn(-c2cc(Nc3c(C)c(-c4ccc(F)cc4)nn3CC3CC3)ncn2)c(C)c1OC(=O)N(C)C` [Example 520, 1-(6-{[1-(cyclopropylmethyl)-3-(4-fluorophenyl)-4-methyl-1H-pyrazol-5-yl]amino}pyrimidin-4-yl)-3,5-dimethyl-1H-pyrazol-4-yl dimethylcarbamate], for which the IC50 is 1600 nM.

With `CNc1ccc(-c2nn(CCOC)c(Nc3cc(-n4nc(C)c(Cl)c4C)ncn3)c2C)cc1` [Example 521, 6-(4-chloro-3,5-dimethyl-1H-pyrazol-1-yl)-N-{1-(2-methoxyethyl)-4-methyl-3-[4-(methylamino)phenyl]-1H-pyrazol-5-yl}pyrimidin-4-amine], the midpoint of inhibition, the IC50, lay at 8 nM.

Take `CCCN1Cc2cnn(-c3cc(Nc4c(C)c(-c5ccc(F)cc5)nn4CC4CC4)ncn3)c2C1` [Example 522, N-[1-(cyclopropylmethyl)-3-(4-fluorophenyl)-4-methyl-1H-pyrazol-5-yl]-6-(5-propyl-5,6-dihydropyrrolo[3,4-c]pyrazol-1(4H)-yl)pyrimidin-4-amine]: the half-inhibitory concentration (IC50) was 910 nM.

On to `CCCN1Cc2cn(-c3cc(Nc4c(C)c(-c5ccc(F)cc5)nn4CC4CC4)ncn3)nc2C1` [Example 523, N-[1-(cyclopropylmethyl)-3-(4-fluorophenyl)-4-methyl-1H-pyrazol-5-yl]-6-(5-propyl-5,6-dihydropyrrolo[3,4-c]pyrazol-2(4H)-yl)pyrimidin-4-amine], for which the IC50 was 690 nM.

Molecule `COCCn1nc(-c2ccc(F)cc2)c(C)c1Nc1cc(-n2nc(C)c(C(F)(F)F)c2C)ncn1` [Example 524, 6-[3,5-dimethyl-4-(trifluoromethyl)-1H-pyrazol-1-yl]-N-[3-(4-fluorophenyl)-1-(2-methoxyethyl)-4-methyl-1H-pyrazol-5-yl]pyrimidin-4-amine] displayed an IC50 of 8 nM.

Regarding `COCCn1nc(-c2ccc(F)cc2)c(C)c1Nc1cc(-n2nc(C)cc2C)ncn1` [Example 525, 6-(3,5-dimethyl-1H-pyrazol-1-yl)-N-[3-(4-fluorophenyl)-1-(2-methoxyethyl)-4-methyl-1H-pyrazol-5-yl]pyrimidin-4-amine], the half-maximal inhibitory concentration (IC50) was 4 nM.

In the case of `COCCn1nc(-c2ccc(F)cc2)c(C)c1Nc1cc(-n2nc(C)c(OC)c2C)ncn1` [Example 526, N-[3-(4-fluorophenyl)-1-(2-methoxyethyl)-4-methyl-1H-pyrazol-5-yl]-6-(4-methoxy-3,5-dimethyl-1H-pyrazol-1-yl)pyrimidin-4-amine], the IC50 amounted to 17 nM.

As to `COCCn1nc(-c2ccc(F)cc2)c(C)c1Nc1cc(-n2nc(C)cc2C(F)F)ncn1` [Example 527, 6-[5-(difluoromethyl)-3-methyl-1H-pyrazol-1-yl]-N-[3-(4-fluorophenyl)-1-(2-methoxyethyl)-4-methyl-1H-pyrazol-5-yl]pyrimidin-4-amine], the IC50 came to 9 nM.

In the case of `CCOC(=O)c1c(C)nn(-c2cc(Nc3c(C)c(-c4ccc(F)cc4)nn3CCOC)ncn2)c1C` [Example 528, ethyl 1-(6-{[3-(4-fluorophenyl)-1-(2-methoxyethyl)-4-methyl-1H-pyrazol-5-yl]amino}pyrimidin-4-yl)-3,5-dimethyl-1H-pyrazole-4-carboxylate], half-maximal inhibition (IC50) required 4 nM.

The molecule `Cc1ccc(-c2nn(CC3CC3)c(Nc3cc(-n4nc(C)cc4C)ncn3)c2C)cn1` [Example 529, N-[1-(cyclopropylmethyl)-4-methyl-3-(6-methylpyridin-3-yl)-1H-pyrazol-5-yl]-6-(3,5-dimethyl-1H-pyrazol-1-yl)pyrimidin-4-amine] showed an IC50 of 2700 nM.

On to `Cc1ccc(-c2nn(C)c(Nc3cc(-n4nc(C)c(C(F)(F)F)c4C)ncn3)c2C)cn1` [Example 530, N-[1,4-dimethyl-3-(6-methylpyridin-3-yl)-1H-pyrazol-5-yl]-6-[3,5-dimethyl-4-(trifluoromethyl)-1H-pyrazol-1-yl]pyrimidin-4-amine], for which the IC50 came to 33 nM.

`COc1c(Nc2cc(-n3nc(C)c(CC(C)(C)O)c3C)ncn2)nn(C)c1-c1ccc(C#N)cc1` [Example 531, 4-[3-({6-[4-(2-hydroxy-2-methylpropyl)-3,5-dimethyl-1H-pyrazol-1-yl]pyrimidin-4-yl}amino)-4-methoxy-1-methyl-1H-pyrazol-5-yl]benzonitrile] showed an IC50 of 1500 nM.

Regarding `Cc1cc(C(F)F)n(-c2cc(Nc3c(C)c(-c4ccc(C(F)(F)F)nc4)nn3CC3CC3)ncn2)n1` [Example 532, N-{1-(cyclopropylmethyl)-4-methyl-3-[6-(trifluoromethyl)pyridin-3-yl]-1H-pyrazol-5-yl}-6-[5-(difluoromethyl)-3-methyl-1H-pyrazol-1-yl]pyrimidin-4-amine], the half-inhibitory concentration (IC50) amounted to 2800 nM.

`Cc1cc(C)n(-c2cc(Nc3c(C)c(-c4ccc(C(F)(F)F)nc4)nn3CC3CC3)ncn2)n1` [Example 533, N-{1-(cyclopropylmethyl)-4-methyl-3-[6-(trifluoromethyl)pyridin-3-yl]-1H-pyrazol-5-yl}-6-(3,5-dimethyl-1H-pyrazol-1-yl)pyrimidin-4-amine]: the IC50 worked out at 2000 nM.

With `Cc1nn(-c2cc(Nc3c(C)c(-c4ccc(C(F)(F)F)nc4)nn3CC3CC3)ncn2)c(C)c1Cl` [Example 534, 6-(4-chloro-3,5-dimethyl-1H-pyrazol-1-yl)-N-{1-(cyclopropylmethyl)-4-methyl-3-[6-(trifluoromethyl)pyridin-3-yl]-1H-pyrazol-5-yl}pyrimidin-4-amine], inhibition was half-maximal at 1500 nM (IC50).

As for `COc1c(C)nn(-c2cc(Nc3c(C)c(-c4ccc(C(F)(F)F)nc4)nn3CC3CC3)ncn2)c1C` [Example 535, N-{1-(cyclopropylmethyl)-4-methyl-3-[6-(trifluoromethyl)pyridin-3-yl]-1H-pyrazol-5-yl}-6-(4-methoxy-3,5-dimethyl-1H-pyrazol-1-yl)pyrimidin-4-amine], 26 nM corresponded to half-maximal inhibition (IC50).

For `COCCn1nc(-c2ccc(C(F)F)cc2)c(C)c1Nc1cc(-n2nc(C)cc2C)ncn1` [Example 536, N-{3-[4-(difluoromethyl)phenyl]-1-(2-methoxyethyl)-4-methyl-1H-pyrazol-5-yl}-6-(3,5-dimethyl-1H-pyrazol-1-yl)pyrimidin-4-amine], 17 nM corresponded to half-maximal inhibition (IC50).

The molecule `COCCn1nc(-c2ccc(C(F)F)cc2)c(C)c1Nc1cc(-n2nc(C)c(Cl)c2C)ncn1` [Example 537, 6-(4-chloro-3,5-dimethyl-1H-pyrazol-1-yl)-N-{3-[4-(difluoromethyl)phenyl]-1-(2-methoxyethyl)-4-methyl-1H-pyrazol-5-yl}pyrimidin-4-amine] returned an IC50 of 26 nM.

As to `COCCn1nc(-c2ccc(C(F)F)cc2)c(C)c1Nc1cc(-n2nc(C)cc2C(F)F)ncn1` [Example 538, 6-[5-(difluoromethyl)-3-methyl-1H-pyrazol-1-yl]-N-{3-[4-(difluoromethyl)phenyl]-1-(2-methoxyethyl)-4-methyl-1H-pyrazol-5-yl}pyrimidin-4-amine], half-maximal inhibition (IC50) was put at 12 nM.

Molecule `COCCn1nc(-c2ccc(C(F)F)cc2)c(C)c1Nc1cc(-n2nc(C)c(OC)c2C)ncn1` [Example 539, N-{3-[4-(difluoromethyl)phenyl]-1-(2-methoxyethyl)-4-methyl-1H-pyrazol-5-yl}-6-(4-methoxy-3,5-dimethyl-1H-pyrazol-1-yl)pyrimidin-4-amine] yielded a half-inhibitory concentration (IC50) of 20 nM.

For the molecule `COc1c(Nc2cc(-n3nc(C)c(Cl)c3C)ncn2)nn(C)c1-c1ccc(C#N)cc1` [Example 540, 4-(3-{[6-(4-chloro-3,5-dimethyl-1H-pyrazol-1-yl)pyrimidin-4-yl]amino}-4-methoxy-1-methyl-1H-pyrazol-5-yl)benzonitrile], the midpoint of inhibition, the IC50, lay at 17 nM.

Molecule `COc1c(Nc2cc(-n3nc(C)c(C(F)(F)F)c3C)ncn2)nn(C)c1-c1ccc(C#N)cc1` [Example 541, 4-[3-({6-[3,5-dimethyl-4-(trifluoromethyl)-1H-pyrazol-1-yl]pyrimidin-4-yl}amino)-4-methoxy-1-methyl-1H-pyrazol-5-yl]benzonitrile] returned an IC50 of 260 nM.

As to `COCCn1nc(-c2ccc(F)cn2)c(C)c1Nc1cc(-n2nc(C)cc2C)ncn1` [Example 542, 6-(3,5-dimethyl-1H-pyrazol-1-yl)-N-[3-(5-fluoropyridin-2-yl)-1-(2-methoxyethyl)-4-methyl-1H-pyrazol-5-yl]pyrimidin-4-amine], the half-maximal inhibitory concentration (IC50) stood at 28 nM.

As for `COCCn1nc(-c2ccc(F)cn2)c(C)c1Nc1cc(-n2nc(C)cc2C(F)F)ncn1` [Example 543, 6-[5-(difluoromethyl)-3-methyl-1H-pyrazol-1-yl]-N-[3-(5-fluoropyridin-2-yl)-1-(2-methoxyethyl)-4-methyl-1H-pyrazol-5-yl]pyrimidin-4-amine], the IC50 stood at 480 nM.

`COCCn1nc(-c2ccc(F)cn2)c(C)c1Nc1cc(-n2nc(C)c(OC)c2C)ncn1` [Example 544, N-[3-(5-fluoropyridin-2-yl)-1-(2-methoxyethyl)-4-methyl-1H-pyrazol-5-yl]-6-(4-methoxy-3,5-dimethyl-1H-pyrazol-1-yl)pyrimidin-4-amine]: the 50% inhibitory concentration (IC50) amounted to 11 nM.

What is called IC50 is the midpoint of a concentration-inhibition curve. High values mean weaker potency in that assay, low ones greater potency in that assay.

For the origin of these results see patent US11208400B2, “Substituted 6-(1H-pyrazol-1-yl)pyrimidin-4-amine derivatives and uses thereof” (Bayer Aktiengesellschaft, priority 2016, dated 2021).
